According to publication PMC6534296, “Structural analysis of Cytochrome P450 BM3 mutant M11 in complex with dithiothreitol” (PLoS ONE, 2019):

Biological target: T1, Cytochrome P450 BM3 (CYP102A1) mutant M11 (Priestia megaterium, UniProt P14779, E144G/E268V/E65G/F82I/F88V/G416S/H286Y/L189Q/R48L/Y199C)
T1 construct: heme domain (stop codon introduced after residue 473)
Assay: X-ray crystal structure ([…] Å) and UV/Vis difference spectral titration
Format: binding

T1 sequence (P14779 1-474 R48L/E65G/F82I/F88V/E144G/L189Q/Y199C/E268V/H286Y/G416S): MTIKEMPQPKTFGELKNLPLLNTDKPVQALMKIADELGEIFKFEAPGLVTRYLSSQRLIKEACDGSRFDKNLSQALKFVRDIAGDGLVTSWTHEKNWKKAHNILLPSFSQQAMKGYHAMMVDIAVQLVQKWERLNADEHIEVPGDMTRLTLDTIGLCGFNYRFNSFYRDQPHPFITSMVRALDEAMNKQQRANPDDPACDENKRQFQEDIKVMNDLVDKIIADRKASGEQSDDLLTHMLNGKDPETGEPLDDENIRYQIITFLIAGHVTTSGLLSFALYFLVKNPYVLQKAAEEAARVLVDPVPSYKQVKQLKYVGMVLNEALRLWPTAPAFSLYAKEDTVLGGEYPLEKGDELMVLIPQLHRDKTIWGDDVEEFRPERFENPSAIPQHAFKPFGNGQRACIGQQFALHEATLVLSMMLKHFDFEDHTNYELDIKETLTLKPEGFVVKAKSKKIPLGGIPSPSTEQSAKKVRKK

## O[C@@H](CS)[C@@H](O)CS (racemic) [DTT, dithiothreitol]
  Kd: 56.8 ± 1.3 µM
